In patent publication US10149809B2, “Skin aging inhibitor and concentrate of resveratrol 3-O-α-glucoside” (priority 2014, dated 2018):

Tests used:
[1] = test system: matrix metalloproteinase 9 (MMP9) gene; assay: MMP9 gene expression in the epidermis (three-dimensional human skin model); type: cell-based; conditions: 100 μL, 8 hours, distilled water control = 100%
Description: Using a three-dimensional human skin model, the effect of resveratrol 3-O-α-glucoside on the matrix metalloproteinase 9 (MMP9) gene expression in the epidermis was investigated.
An aqueous solution containing resveratrol 3-O-α-glucoside at a concentration of 0.02 or 0.1 wt %, or containing resveratrol 3-O-β-glucoside at a concentration of 0.02 wt % was prepared, and the resulting solution was used as a sample solution. One-hundred microliters of the sample solution were administered to the horny layer side of the human skin model (EpiDerm EPI-200; MatTek), and cultured in 5 mL of a special medium (EPI-100-ASY) at 37° C. for 8 hours. After the culture, total RNA was extracted from the skin model, and the level of expression of the MMP9 gene was quantified by real time PCR. As a control group, distilled water was administered to a skin model instead of the sample solution, and total RNA collected from the skin model was used.
Taking as 100% the level of expression of the MMP9 gene for the control group, a relative ratio of the expression level of the MMP9 gene for the resveratrol 3-O-α-glucoside- or resveratrol 3-O-β-glucoside-supplemented group (MMP9 gene expression ratio, %) was determined. In the measurement of the expression level of the MMP9 gene, PPIA was used for internal standard correction.

[2] = Solubility in solvent containing 1,3-butylene glycol; type: physicochemical
Description: (§1) Approximately 40 mg each of resveratrol 3-O-α-glucoside, resveratrol (Tokyo Chemical Industry Co., Ltd.), and resveratrol 3-O-β-glucoside (Tokyo Chemical Industry Co., Ltd.) was weighed, approximately 70 mg of a solvent (whose composition is shown in Table 18) containing ethanol (Wako Pure Chemical Industries, Ltd.) was added thereto, and the mixture was soaked in a water bath at 25° C. under light-tight conditions, and incubated for 15 hours with occasional stirring. After 15 hours, each of the samples was filtered through a 0.45 μm centrifugal filter, and then the concentration of each of the components in the filtrate was analyzed using HPLC under the same conditions as those described in Production Example 1 above. The dissolved concentration (w/v %) at 25° C. was thus determined.
The solubility of resveratrol 3-O-α-glucoside was evaluated under the same conditions as those described in Example 18 above, except that a solvent (whose composition is shown in Table 21) containing 1,3-butylene glycol (Wako Pure Chemical Industries, Ltd.) was used.

[3] = Solubility in solvent containing dipropylene glycol; type: physicochemical
Description: as §1
The solubility of resveratrol 3-O-α-glucoside was evaluated under the same conditions as those described in Example 18 above, except that a solvent (whose composition is shown in Table 22) containing dipropylene glycol (Asahi Glass Co., Ltd.) was used.

Solubility in water = type: physicochemical
Description: as §1, with “5” for “40”, “1 mL” for “70 mg”, “water” for “a solvent (whose composition is shown in Table 18) containing ethanol (Wako Pure Chemical Industries, Ltd.)”, “20” for “15”, “%) in water” for “%)”

[4] = Solubility in solvent containing propylene glycol; type: physicochemical
Description: as §1
The solubility of resveratrol 3-O-α-glucoside was evaluated under the same conditions as those described in Example 18 above, except that a solvent (whose composition is shown in Table 20) containing propylene glycol (Wako Pure Chemical Industries, Ltd.) was used.

[5] = Absorption when orally ingested: converted resveratrol concentration in plasma; type: in vivo, human
Description: Blood concentrations of resveratrol metabolites when resveratrol 3-O-α-glucoside and resveratrol 3-O-β-glucoside were orally ingested were examined, and the absorption properties of resveratrol 3-O-α-glucoside and resveratrol 3-O-β-glucoside were compared.
To 100 mL of water, 86 mg of resveratrol 3-O-α-glucoside or resveratrol 3-O-β-glucoside (Tokyo Chemical Industry Co., Ltd.) was added, and the mixture was stirred for 1 minute. The resulting solution was orally ingested by a subject at a time. Blood was collected prior to, 30 minutes after, and 1, 2, 3, and 4 hours after the ingestion, and the plasma was separated by centrifugation. The test was performed three times for each of the samples. In order to quantify the amount of resveratrol derivatives in the collected plasma samples, 10 μL of β-glucronidase Type H-2 from Sigma-Aldrich Co. LLC. (glucuronidase activity: 115003 units/mL, sulfatase activity: 556 units/mL; a 5-fold diluted solution in a 100 mM acetate buffer solution (pH 5.5)) was added to 10 μL of the collected plasma, and enzyme treatment was performed at 37° C. for about 18 hours. After the reaction, 80 μL of 60% acetonitrile was added, and subsequently 100 μL of water was further added thereto, and the mixture was stirred. The filtrate obtained by filtering through a membrane (0.45 μm) was subjected to HPLC analysis. A converted resveratrol concentration was determined by converting the concentration of resveratrol derivatives in each of the plasma samples into the concentration of resveratrol, and maximum blood concentrations and areas under the curve (AUCs) 0 to 4 hours after the ingestion were determined.

[6] = EpiDerm EPI-200, 0.02 wt % aqueous solution

OC[C@H]1O[C@H](Oc2cc(O)cc(C=Cc3ccc(O)cc3)c2)[C@H](O)[C@@H](O)[C@@H]1O [Resveratrol 3-O-α-Glucoside, resveratrol 3-O-α-glucoside]
MMP9 Gene Expression Ratio (%) [1, 6]: 85%
MMP9 Gene Expression Ratio (%) ([1]; EpiDerm EPI-200, 0.1 wt % aqueous solution): 66%
dissolved concentration [2]: exceeded 20 w/v %
dissolved concentration [3]: exceeded 30 w/v %
Dissolved Concentration (μg/mL) in Water (Solubility in water; 20 h): 2900 µg/mL
dissolved concentration [4]: exceeded 30 w/v %
Dissolved Concentration (w/v %) at 25° C. ([4]; 15 h): 0.3 w/v %
AUC relative to resveratrol 3-O-β-glucoside ([5]; human, in vivo, po, 86 mg): 2.8 times

OC[C@H]1O[C@@H](Oc2cc(O)cc(/C=C/c3ccc(O)cc3)c2)[C@H](O)[C@@H](O)[C@@H]1O [Resveratrol 3-O-β-Glucoside, resveratrol 3-O-β-glucoside]
MMP9 Gene Expression Ratio (%) [1, 6]: 124%
Dissolved Concentration (w/v %) at 25° C. ([2]; 1,3-Butylene Glycol:Water 0:100 (weight ratio)): 0.04 w/v %
Dissolved Concentration (w/v %) at 25° C. ([2]; 1,3-Butylene Glycol:Water 5:95 (weight ratio)): 0.04 w/v %
Dissolved Concentration (w/v %) at 25° C. ([2]; 1,3-Butylene Glycol:Water 10:90 (weight ratio)): 0.07 w/v %
Dissolved Concentration (w/v %) at 25° C. ([2]; 1,3-Butylene Glycol:Water 15:85 (weight ratio)): 0.1 w/v %
Dissolved Concentration (w/v %) at 25° C. ([2]; 1,3-Butylene Glycol:Water 20:80 (weight ratio)): 0.2 w/v %
Dissolved Concentration (w/v %) at 25° C. ([2]; 1,3-Butylene Glycol:Water 25:75 (weight ratio)): 0.3 w/v %
Dissolved Concentration (w/v %) at 25° C. ([2]; 1,3-Butylene Glycol:Water 50:50 (weight ratio)): 2.8 w/v %
Dissolved Concentration (w/v %) at 25° C. ([2]; 1,3-Butylene Glycol:Water 75:25 (weight ratio)): 7.5 w/v %
Dissolved Concentration (w/v %) at 25° C. ([2]; 1,3-Butylene Glycol:Water 90:10 (weight ratio)): 9.7 w/v %
Dissolved Concentration (w/v %) at 25° C. ([2]; 1,3-Butylene Glycol:Water 100:0 (weight ratio)): 7.2 w/v %
Dissolved Concentration (w/v %) at 25° C. ([3]; Dipropylene Glycol:Water 0:100 (weight ratio)): 0.04 w/v %
Dissolved Concentration (w/v %) at 25° C. ([3]; Dipropylene Glycol:Water 5:95 (weight ratio)): 0.06 w/v %
Dissolved Concentration (w/v %) at 25° C. ([3]; Dipropylene Glycol:Water 10:90 (weight ratio)): 0.1 w/v %
Dissolved Concentration (w/v %) at 25° C. ([3]; Dipropylene Glycol:Water 15:85 (weight ratio)): 0.3 w/v %
Dissolved Concentration (w/v %) at 25° C. ([3]; Dipropylene Glycol:Water 20:80 (weight ratio)): 0.5 w/v %
Dissolved Concentration (w/v %) at 25° C. ([3]; Dipropylene Glycol:Water 25:75 (weight ratio)): 0.9 w/v %
Dissolved Concentration (w/v %) at 25° C. ([3]; Dipropylene Glycol:Water 50:50 (weight ratio)): 11.5 w/v %
Dissolved Concentration (w/v %) at 25° C. ([3]; Dipropylene Glycol:Water 75:25 (weight ratio)): 26.1 w/v %
Dissolved Concentration (w/v %) at 25° C. ([3]; Dipropylene Glycol:Water 90:10 (weight ratio)): 23.9 w/v %
Dissolved Concentration (w/v %) at 25° C. ([3]; Dipropylene Glycol:Water 100:0 (weight ratio)): 15.0 w/v %
Dissolved Concentration (μg/mL) in Water (Solubility in water; water, 25° C., 20 hours): 370 µg/mL
Dissolved Concentration (w/v %) at 25° C. ([4]; Propylene Glycol:Water 0:100 (weight ratio)): 0.04 w/v %
Dissolved Concentration (w/v %) at 25° C. ([4]; Propylene Glycol:Water 5:95 (weight ratio)): 0.04 w/v %
Dissolved Concentration (w/v %) at 25° C. ([4]; Propylene Glycol:Water 10:90 (weight ratio)): 0.06 w/v %
Dissolved Concentration (w/v %) at 25° C. ([4]; Propylene Glycol:Water 15:85 (weight ratio)): 0.09 w/v %
Dissolved Concentration (w/v %) at 25° C. ([4]; Propylene Glycol:Water 20:80 (weight ratio)): 0.1 w/v %
Dissolved Concentration (w/v %) at 25° C. ([4]; Propylene Glycol:Water 25:75 (weight ratio)): 0.2 w/v %
Dissolved Concentration (w/v %) at 25° C. ([4]; Propylene Glycol:Water 50:50 (weight ratio)): 3.3 w/v %
Dissolved Concentration (w/v %) at 25° C. ([4]; Propylene Glycol:Water 75:25 (weight ratio)): 11.5 w/v %
Dissolved Concentration (w/v %) at 25° C. ([4]; Propylene Glycol:Water 90:10 (weight ratio)): 12.5 w/v %
Dissolved Concentration (w/v %) at 25° C. ([4]; Propylene Glycol:Water 100:0 (weight ratio)): 11.3 w/v %
Maximum Plasma Concentration ([5]; 86 mg in 100 mL water orally, one subject, three tests, converted resveratrol concentration after glucuronidase/sulfatase treatment): 282 ng/mL
Area under the Curve ((mg/L) · Hr) ([5]; 86 mg orally, 0 to 4 hours after ingestion, converted resveratrol concentration): 0.9 (mg/L) · Hr
